Key:
Format in all cases: functional
[1] = tested on: Candida albicans; assay: Antifungal activity against Candida albicans assessed as growth inhibition at 10 ug/disk; settings: read-out: IZ
[2] = tested on: Escherichia coli; assay: Antibacterial activity against Escherichia coli assessed as growth inhibition at 10 ug/disk; settings: read-out: IZ
[3] = tested on: Bacillus subtilis; assay: Antibacterial activity against Bacillus subtilis assessed as growth inhibition at 10 ug/disk; settings: read-out: IZ
[4] = tested on: Rattus norvegicus; assay: Anti-inflammatory activity in Rattus norvegicus Wistar albino (rat) assessed as inhibition of carrageenan-induced paw edema at 10 mg/kg, po relative to untreated control
[5] = tested on: Pseudomonas aeruginosa; assay: Antibacterial activity against Pseudomonas aeruginosa assessed as growth inhibition at 10 ug/disk; settings: read-out: IZ
[6] = tested on: Staphylococcus aureus; assay: Antibacterial activity against Staphylococcus aureus assessed as growth inhibition at 10 ug/disk; settings: read-out: IZ
[7] = tested on: Aspergillus niger; assay: Antifungal activity against Aspergillus niger assessed as growth inhibition at 10 ug/disk; settings: read-out: IZ

Compound	zone of inhibition at 10 µg/disc [1] [mm]	zone of inhibition at 10 µg/disc [2] [mm]	zone of inhibition at 10 µg/disc [3] [mm]	inhibition in vivo at 10 mg/kg [4] [%]	zone of inhibition at 10 µg/disc [5] [mm]	zone of inhibition at 10 µg/disc [6] [mm]	zone of inhibition at 10 µg/disc [7] [mm]
Clc1ccc(OCc2ccccc2-c2nc(CN3CCN(C(c4ccccc4)c4ccc(Cl)cc4)CC3)cs2)cc1 (stereo not given)	28	28	26	76.4	26	27	25
Cc1ccccc1OCc1ccccc1-c1nc(COc2ccc(Cl)cc2)cs1	20	22	18	65.1	20	20	16
Cc1cccc(OCc2ccccc2-c2nc(COc3ccc(Cl)cc3)cs2)c1	22	20	22	67.7	18	24	18
Cc1ccc(OCc2ccccc2-c2nc(COc3ccc(Cl)cc3)cs2)cc1	20	24	19	68.7	17	22	18
Clc1ccc(OCc2csc(-c3ccccc3COc3ccc(Cl)cc3)n2)cc1	26	26	27	76.4	24	28	24
Cc1ccccc1OCc1ccccc1-c1nc(-c2ccc(O)c(C(N)=O)c2)cs1	16	20	18	40.5	21	18	18
Cc1cccc(OCc2ccccc2-c2nc(-c3ccc(O)c(C(N)=O)c3)cs2)c1	18	20	22	42.9	22	22	11
Cc1ccc(OCc2ccccc2-c2nc(-c3ccc(O)c(C(N)=O)c3)cs2)cc1	20	19	20	46.7	20	20	18
NC(=O)c1cc(-c2csc(-c3ccccc3COc3ccc(Cl)cc3)n2)ccc1O	27	28	26	72.2	24	28	25
Cc1ccccc1OCc1ccccc1-c1nc(-c2cc(Cl)sc2S(N)(=O)=O)cs1	18	20	20	70.1	22	22	16
Cc1cccc(OCc2ccccc2-c2nc(-c3cc(Cl)sc3S(N)(=O)=O)cs2)c1	19	20	16	66.8	18	18	18
Cc1ccc(OCc2ccccc2-c2nc(-c3cc(Cl)sc3S(N)(=O)=O)cs2)cc1	20	22	18	68.7	20	20	16
NS(=O)(=O)c1sc(Cl)cc1-c1csc(-c2ccccc2COc2ccc(Cl)cc2)n1	26	26	28	76.4	24	28	24
Cc1ccccc1OCc1ccccc1-c1nc(-c2cccc(Br)c2)cs1	10	8	12	40.4	8	10	11
Cc1cccc(OCc2ccccc2-c2nc(-c3cccc(Br)c3)cs2)c1	14	10	10	46.7	10	12	16
